Reference: patent US20100029479A1, “PESTICIDAL COMBINATIONS” (SYNGENTA CROP PROTECTION, INC., priority 2006, published 2010)

Legend:
Ustilago = assay: Ustilago, % pest incidence (seed treatment, field plots); assay type: in vivo; details: Antraquinone 50, combination 50 + 2 + 5 + 3 gai/100 kg seed
Tilletia caries = assay: Tilletia caries, number of ears infected (seed treatment, field plots); assay type: in vivo; details: Winter wheat/caphorn, Antraquinone 50, combination 50 + 2 + 5 + 3 gai/100 kg seed

O=C1c2ccccc2C(=O)c2ccccc21 [Antraquinone]
% Pest Incidence (Ustilago; Trial 1, Winter barley var LL09OH05, plot 15 m^2, 210 DAP): 18.1 (a) % | % Pest Incidence (Ustilago; Trial 2, Winter barley var LL05OH05, plot 14.4 m^2, 205 DAP): 5.6 (a) % | % Pest Incidence (Ustilago; Trial 3, Winter barley, plot 14.4 m^2, 161 DAP): 22.2 (a) % | Number of Ears Infected (Tilletia caries; Trial 1, plot 15 m^2, 253 DAP): 14.3 (a) | Number of Ears Infected (Tilletia caries; Trial 2, plot 14.25 m^2, 220 DAP): 232.3 (a) | Number of Ears Infected (Tilletia caries; Trial 3, plot 15 m^2, 212 DAP): 84.3 (a) | Number of Ears Infected (Tilletia caries; Trial 4, plot 12 m^2, 192 DAP): 56 (a)
